Assay results: patent publication US10508120B2, “TYK2 inhibitors and uses thereof” (Nimbus Lakshmi, Inc., priority 2017, dated 2019)
Values belong to the compound of their own block, whether it stands above or below them.

Legend:
JAK2 kinase domain (JH1) = JAK2 kinase domain (JH1) (Homo sapiens (Human), UniProt O60674); experiment: JAK2 Radioactive Kinase Assay; type: biochemical; conditions: compound at 10 μM; ATP 10 μM; read-out: JAK2 JH1% Inhibition @ 10 μM
In short: (§1)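 Compounds were tested at a single concentration of 10 μM in a radiometric kinase format against each isolated kinase domain. Activity is reported as percent inhibition at that concentration.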

[1] = target: Tyk2/JAK2 (heterodimeric complex) (Homo sapiens (Human), UniProt P29597); experiment: IL-12 Induced pSTAT4 in Human PBMC; type: cell-based; conditions: 1.7 ng/mL IL-12
From the text: The IL-12 Induced pSTAT4 assay evaluates the inhibition of IL-12 induced STAT4 phophorylation mediated by Tyk2/JAK2 (heterodimeric complex).

[2] = target: human TYK2 (JH2domain-pseudokinase) (Homo sapiens (Human), UniProt P29597); experiment: TYK2 JH2 Domain Binding Assay (KINOMEscan)
In short: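 Kds, run in duplicate, came from Hill fits (slope fixed at −1) of an 11-point 3-fold dilution series starting at 30,000 nM. Bead-retained TYK2 JH2 (aa G556–D888)–NFkB DBD fusion, DNA-tagged and expressed in HEK293 cells, was read by qPCR after 1 h room-temperature binding in 0.9% DMSO.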

[3] = target: JAK2/JAK2 homdimeric complex (Homo sapiens (Human), UniProt O60674); experiment: GM-CSF Induced pSTAT5 in Human PBMC; type: cell-based; conditions: GM-CSF 5 ng/mL for 20 minutes, pSTAT5 by MSD, read-out: PBMC_GMCSF_pSTAT5 IC50
Tyk2 kinase domain (DH1) = Tyk2 kinase domain (DH1) (Homo sapiens (Human), UniProt P29597); experiment: Tyk2 Radioactive Kinase Assay; type: biochemical; conditions: compound at 10 μM; ATP 10 μM; read-out: Tyk2 JH1% Inhibition @ 10 μM
In short: as §1

JAK2 kinase domain (JH1), sequence (O60674 849-1124): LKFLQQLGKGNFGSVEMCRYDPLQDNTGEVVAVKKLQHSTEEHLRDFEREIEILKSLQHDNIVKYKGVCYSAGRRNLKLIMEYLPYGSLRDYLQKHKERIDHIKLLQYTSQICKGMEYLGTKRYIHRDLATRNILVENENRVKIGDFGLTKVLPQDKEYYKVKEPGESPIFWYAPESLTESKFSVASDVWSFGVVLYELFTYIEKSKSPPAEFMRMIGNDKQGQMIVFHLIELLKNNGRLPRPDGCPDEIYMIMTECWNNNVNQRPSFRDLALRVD
Tyk2 kinase domain (DH1), sequence (P29597 897-1176): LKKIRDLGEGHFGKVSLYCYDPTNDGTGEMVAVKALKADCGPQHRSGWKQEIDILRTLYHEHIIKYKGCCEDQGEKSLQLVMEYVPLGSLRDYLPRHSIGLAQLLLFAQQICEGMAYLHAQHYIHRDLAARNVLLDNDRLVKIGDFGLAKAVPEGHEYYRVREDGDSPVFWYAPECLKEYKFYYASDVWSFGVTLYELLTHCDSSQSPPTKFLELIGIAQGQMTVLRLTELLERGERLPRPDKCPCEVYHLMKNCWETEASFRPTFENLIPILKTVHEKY
Tyk2/JAK2 (heterodimeric complex), sequence (P29597 whole entry, other chains not shown): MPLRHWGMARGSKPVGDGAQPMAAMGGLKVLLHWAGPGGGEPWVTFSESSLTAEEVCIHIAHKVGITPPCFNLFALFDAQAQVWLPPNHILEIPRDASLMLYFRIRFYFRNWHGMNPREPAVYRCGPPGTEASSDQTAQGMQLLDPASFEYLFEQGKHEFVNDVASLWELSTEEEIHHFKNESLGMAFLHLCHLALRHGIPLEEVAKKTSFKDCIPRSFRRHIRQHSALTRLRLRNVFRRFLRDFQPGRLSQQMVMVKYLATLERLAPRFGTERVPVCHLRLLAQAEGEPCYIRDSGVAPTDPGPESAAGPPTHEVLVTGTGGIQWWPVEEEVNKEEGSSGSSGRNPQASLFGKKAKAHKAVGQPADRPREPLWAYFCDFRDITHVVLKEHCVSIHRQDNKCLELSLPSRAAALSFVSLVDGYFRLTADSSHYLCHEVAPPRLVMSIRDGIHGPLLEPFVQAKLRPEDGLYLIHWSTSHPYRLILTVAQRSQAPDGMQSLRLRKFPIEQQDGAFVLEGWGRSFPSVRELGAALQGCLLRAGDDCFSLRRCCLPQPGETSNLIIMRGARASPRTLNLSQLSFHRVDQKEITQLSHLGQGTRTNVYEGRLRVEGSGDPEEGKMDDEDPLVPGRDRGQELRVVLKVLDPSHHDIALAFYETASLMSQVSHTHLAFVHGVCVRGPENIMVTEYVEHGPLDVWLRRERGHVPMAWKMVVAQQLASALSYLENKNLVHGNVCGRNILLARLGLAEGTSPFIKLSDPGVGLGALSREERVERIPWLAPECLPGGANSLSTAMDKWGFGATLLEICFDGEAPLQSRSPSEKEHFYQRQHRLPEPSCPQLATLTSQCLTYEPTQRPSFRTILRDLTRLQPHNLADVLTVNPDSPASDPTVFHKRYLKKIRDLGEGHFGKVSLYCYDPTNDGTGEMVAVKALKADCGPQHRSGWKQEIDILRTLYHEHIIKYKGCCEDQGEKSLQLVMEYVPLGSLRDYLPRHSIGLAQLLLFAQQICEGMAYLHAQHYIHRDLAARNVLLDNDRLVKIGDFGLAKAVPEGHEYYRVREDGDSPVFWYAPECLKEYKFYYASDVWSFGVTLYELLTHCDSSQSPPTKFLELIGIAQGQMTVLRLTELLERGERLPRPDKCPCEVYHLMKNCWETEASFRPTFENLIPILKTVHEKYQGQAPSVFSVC
JAK2/JAK2 homdimeric complex, sequence (O60674 whole entry, the tested form may be a part): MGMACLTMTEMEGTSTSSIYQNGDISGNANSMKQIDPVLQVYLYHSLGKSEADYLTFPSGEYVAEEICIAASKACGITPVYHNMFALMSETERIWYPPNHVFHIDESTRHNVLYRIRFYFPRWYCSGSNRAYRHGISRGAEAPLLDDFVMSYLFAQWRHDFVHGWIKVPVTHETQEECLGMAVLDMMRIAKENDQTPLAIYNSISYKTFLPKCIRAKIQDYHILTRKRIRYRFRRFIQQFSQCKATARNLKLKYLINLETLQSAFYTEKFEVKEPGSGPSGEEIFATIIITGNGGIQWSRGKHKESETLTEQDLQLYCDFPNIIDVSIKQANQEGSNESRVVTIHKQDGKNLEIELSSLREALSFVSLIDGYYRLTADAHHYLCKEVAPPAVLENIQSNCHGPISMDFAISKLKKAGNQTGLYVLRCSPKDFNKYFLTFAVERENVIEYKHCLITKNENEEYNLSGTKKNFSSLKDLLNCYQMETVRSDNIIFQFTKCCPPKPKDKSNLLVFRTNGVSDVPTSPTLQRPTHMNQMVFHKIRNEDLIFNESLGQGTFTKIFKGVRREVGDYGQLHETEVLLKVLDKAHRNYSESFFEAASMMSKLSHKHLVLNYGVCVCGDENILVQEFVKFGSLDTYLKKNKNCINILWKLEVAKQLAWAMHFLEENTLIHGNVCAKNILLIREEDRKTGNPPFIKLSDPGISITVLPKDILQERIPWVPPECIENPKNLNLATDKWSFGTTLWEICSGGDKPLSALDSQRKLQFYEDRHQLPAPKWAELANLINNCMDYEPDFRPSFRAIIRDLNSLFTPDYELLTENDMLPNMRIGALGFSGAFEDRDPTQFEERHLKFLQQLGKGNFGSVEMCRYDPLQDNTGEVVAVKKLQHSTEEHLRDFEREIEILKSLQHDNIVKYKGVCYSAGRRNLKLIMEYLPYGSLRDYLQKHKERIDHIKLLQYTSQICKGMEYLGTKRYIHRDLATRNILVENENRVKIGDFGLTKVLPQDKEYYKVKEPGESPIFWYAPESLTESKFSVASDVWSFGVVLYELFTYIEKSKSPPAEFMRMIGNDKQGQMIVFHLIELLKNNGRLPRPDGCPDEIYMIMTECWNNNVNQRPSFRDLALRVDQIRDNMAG
JAK2/JAK2 homdimeric complex, sequence (P32927 17-897 partner): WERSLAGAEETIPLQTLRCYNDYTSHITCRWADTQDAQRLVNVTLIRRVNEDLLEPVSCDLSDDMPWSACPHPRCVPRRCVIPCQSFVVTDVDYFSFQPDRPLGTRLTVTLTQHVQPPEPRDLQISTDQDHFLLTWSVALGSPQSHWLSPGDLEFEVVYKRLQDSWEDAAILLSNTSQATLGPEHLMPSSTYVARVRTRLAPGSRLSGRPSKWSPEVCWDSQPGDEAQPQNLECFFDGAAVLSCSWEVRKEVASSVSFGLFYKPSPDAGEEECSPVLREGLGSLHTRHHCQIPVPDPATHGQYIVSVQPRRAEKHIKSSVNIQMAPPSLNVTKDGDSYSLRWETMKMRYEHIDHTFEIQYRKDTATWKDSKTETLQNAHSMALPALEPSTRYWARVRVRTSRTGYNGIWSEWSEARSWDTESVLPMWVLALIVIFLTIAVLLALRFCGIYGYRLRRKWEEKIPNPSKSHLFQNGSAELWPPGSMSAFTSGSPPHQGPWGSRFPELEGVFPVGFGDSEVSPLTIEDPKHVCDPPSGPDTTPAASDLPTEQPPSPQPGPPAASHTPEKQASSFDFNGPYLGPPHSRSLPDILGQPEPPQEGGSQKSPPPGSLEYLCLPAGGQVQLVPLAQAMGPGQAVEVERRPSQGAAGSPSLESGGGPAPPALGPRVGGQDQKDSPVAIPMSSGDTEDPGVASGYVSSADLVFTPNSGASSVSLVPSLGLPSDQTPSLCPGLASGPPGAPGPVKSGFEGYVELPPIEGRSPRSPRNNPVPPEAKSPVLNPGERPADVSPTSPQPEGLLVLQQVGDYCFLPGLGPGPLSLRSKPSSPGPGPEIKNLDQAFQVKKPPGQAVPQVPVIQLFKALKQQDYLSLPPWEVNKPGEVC
human TYK2 (JH2domain-pseudokinase), sequence (P29597 556-888): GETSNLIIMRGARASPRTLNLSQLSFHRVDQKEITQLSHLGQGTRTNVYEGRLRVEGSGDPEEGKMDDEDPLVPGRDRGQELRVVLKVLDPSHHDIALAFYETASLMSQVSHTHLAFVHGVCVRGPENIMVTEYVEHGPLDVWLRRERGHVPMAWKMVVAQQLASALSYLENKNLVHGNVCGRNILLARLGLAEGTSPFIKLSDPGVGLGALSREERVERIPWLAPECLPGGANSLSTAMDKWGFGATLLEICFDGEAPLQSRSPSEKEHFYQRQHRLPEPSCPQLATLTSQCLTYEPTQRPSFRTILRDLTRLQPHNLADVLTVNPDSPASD

Structure (SMILES): CNc1cc(Nc2cccn(-c3ccc(F)cn3)c2=O)nc2c(C(=O)NC3CCC3)cnn12 [I-238]
inhibition at 10 µM (JAK2 kinase domain (JH1)): < 50% | IC50 [1]: < 100 nM | Kd [2]: < 0.2 nM | IC50 [3]: > 50 µM | inhibition at 10 µM (Tyk2 kinase domain (DH1)): < 50%

Structure (SMILES): CNc1cc(Nc2cccn(-c3ccc(C4CC4)nn3)c2=O)nc2c(C(=O)NC3CCC3)cnn12 [I-240]
inhibition at 10 µM (JAK2 kinase domain (JH1)): < 50% | IC50 [1]: < 100 nM | Kd [2]: < 0.2 nM | IC50 [3]: > 2.5 µM | inhibition at 10 µM (Tyk2 kinase domain (DH1)): < 50%

Structure (SMILES): CNc1cc(Nc2cccc(N3CCCC3=O)n2)nc2c(C(=O)N[C@H]3C[C@H]3F)cnn12 [I-244]
inhibition at 10 µM (JAK2 kinase domain (JH1)): < 50% | IC50 [1]: < 100 nM | Kd [2]: < 0.2 nM | IC50 [3]: > 12.5 µM | inhibition at 10 µM (Tyk2 kinase domain (DH1)): < 50%

Structure (SMILES): CNc1cc(Nc2cc(C)cn(-c3ccn(C)n3)c2=O)nc2c(C(=O)N[C@H]3C[C@H]3F)cnn12 [I-250]
inhibition at 10 µM (JAK2 kinase domain (JH1)): < 50% | IC50 [1]: < 100 nM | Kd [2]: < 0.2 nM | IC50 [3]: > 12.5 µM | inhibition at 10 µM (Tyk2 kinase domain (DH1)): < 50%

Structure (SMILES): [2H]C([2H])([2H])Oc1ncc(C)cc1Nc1cc(NC)n2ncc(C(=O)NC3CC3)c2n1 [I-258]
inhibition at 10 µM (JAK2 kinase domain (JH1)): < 50% | IC50 [1]: < 100 nM | Kd [2]: < 0.2 nM | IC50 [3]: > 50 µM | inhibition at 10 µM (Tyk2 kinase domain (DH1)): < 50%

Structure (SMILES): [2H]C([2H])([2H])Oc1ncc(C)cc1Nc1cc(NC)n2ncc(C(=O)N[C@H]3C[C@H]3F)c2n1 [I-259]
inhibition at 10 µM (JAK2 kinase domain (JH1)): < 50% | IC50 [1]: < 100 nM | Kd [2]: < 0.2 nM | IC50 [3]: > 12.5 µM | inhibition at 10 µM (Tyk2 kinase domain (DH1)): < 50%

Structure (SMILES): CNc1cc(Nc2cccn(-c3ncc(C)s3)c2=O)nc2c(C(=O)NC3CC3)cnn12 [I-261, N-cyclopropyl-7-(methylamino)-5-((1-(5-methylthiazol-2-yl)-2-oxo-1,2-dihydropyridin-3-yl)amino)pyrazolo[1,5-a]pyrimidine-3-carboxamide]
inhibition at 10 µM (JAK2 kinase domain (JH1)): < 50% | IC50 [1]: < 100 nM | Kd [2]: 0.2 to 1 nM | IC50 [3]: > 2.5 µM | inhibition at 10 µM (Tyk2 kinase domain (DH1)): < 50%

Structure (SMILES): CNc1cc(Nc2cccn(-c3ncc(C)s3)c2=O)nc2c(C(=O)N[C@H]3C[C@H]3F)cnn12 [I-262]
inhibition at 10 µM (JAK2 kinase domain (JH1)): < 50% | IC50 [1]: < 100 nM | Kd [2]: < 0.2 nM | IC50 [3]: > 2.5 µM | inhibition at 10 µM (Tyk2 kinase domain (DH1)): < 50%

Structure (SMILES): CNc1cc(Nc2cccn(CCOC)c2=O)nc2c(C(=O)NC3CCC3)cnn12 [I-269]
inhibition at 10 µM (JAK2 kinase domain (JH1)): < 50% | IC50 [1]: < 100 nM | Kd [2]: < 0.2 nM | IC50 [3]: > 50 µM | inhibition at 10 µM (Tyk2 kinase domain (DH1)): < 50%

Structure (SMILES): CNc1cc(-c2cn(C(C)C)c3ncc(Cl)cc23)nc2c(C(N)=O)cnn12 [I-272, 5-(5-chloro-1-isopropyl-1H-pyrrolo[2,3-b]pyridin-3-yl)-7-(methylamino) pyrazolo[1,5-a]pyrimidine-3-carboxamide]
inhibition at 10 µM (JAK2 kinase domain (JH1)): < 50% | IC50 [1]: < 100 nM | Kd [2]: < 0.2 nM | IC50 [3]: > 12.5 µM | inhibition at 10 µM (Tyk2 kinase domain (DH1)): < 50%

Structure (SMILES): CNc1cc(Nc2cc(F)cnc2OC2CC2)nc2c(C(=O)N[C@H]3C[C@H]3F)cnn12 [I-275]
inhibition at 10 µM (JAK2 kinase domain (JH1)): < 50% | IC50 [1]: < 100 nM | Kd [2]: < 0.2 nM | IC50 [3]: > 50 µM | inhibition at 10 µM (Tyk2 kinase domain (DH1)): < 50%

More lines, now with the values ahead:

inhibition at 10 µM (JAK2 kinase domain (JH1)): < 50% | IC50 [1]: < 100 nM | Kd [2]: 0.2 to 1 nM | IC50 [3]: > 2.5 µM | inhibition at 10 µM (Tyk2 kinase domain (DH1)): < 50%
Structure (SMILES): CNc1cc(Nc2cccn(-c3nccs3)c2=O)nc2c(C(=O)N[C@H]3C[C@H]3F)cnn12 [I-243]

inhibition at 10 µM (JAK2 kinase domain (JH1)): < 50% | IC50 [1]: < 100 nM | Kd [2]: < 0.2 nM | IC50 [3]: > 2.5 µM | inhibition at 10 µM (Tyk2 kinase domain (DH1)): < 50%
Structure (SMILES): CNc1cc(Nc2cccn(-c3ccc(F)cc3)c2=O)nc2c(C(=O)NC3CCC3)cnn12 [I-246]

inhibition at 10 µM (JAK2 kinase domain (JH1)): < 50% | IC50 [1]: < 100 nM | Kd [2]: < 0.2 nM | IC50 [3]: > 50 µM | inhibition at 10 µM (Tyk2 kinase domain (DH1)): < 50%
Structure (SMILES): CNc1cc(-c2cn(C(C)C)c3ncc(C)cc23)nc2c(C(N)=O)cnn12 [I-255]

inhibition at 10 µM (JAK2 kinase domain (JH1)): < 50% | IC50 [1]: < 100 nM | Kd [2]: < 0.2 nM | IC50 [3]: > 2.5 µM | inhibition at 10 µM (Tyk2 kinase domain (DH1)): < 50%
Structure (SMILES): CNc1cc(Nc2cccn(-c3ncc(C)s3)c2=O)nc2c(C(=O)NC3CCC3)cnn12 [I-263]

inhibition at 10 µM (JAK2 kinase domain (JH1)): < 50% | IC50 [1]: < 100 nM | Kd [2]: < 0.2 nM | IC50 [3]: > 12.5 µM | inhibition at 10 µM (Tyk2 kinase domain (DH1)): < 50%
Structure (SMILES): CNc1cc(Nc2cccn(-c3ccc(OC)cn3)c2=O)nc2c(C(=O)N[C@H]3C[C@H]3F)cnn12 [I-265]

inhibition at 10 µM (JAK2 kinase domain (JH1)): < 50% | IC50 [1]: < 100 nM | Kd [2]: < 0.2 nM | IC50 [3]: > 12.5 µM | inhibition at 10 µM (Tyk2 kinase domain (DH1)): < 50%
Structure (SMILES): CNc1cc(Nc2cccn(-c3ccc(OC)cn3)c2=O)nc2c(C(=O)NC3CCC3)cnn12 [I-266]

inhibition at 10 µM (JAK2 kinase domain (JH1)): < 50% | IC50 [1]: < 100 nM | Kd [2]: < 0.2 nM | IC50 [3]: > 12.5 µM | inhibition at 10 µM (Tyk2 kinase domain (DH1)): < 50%
Structure (SMILES): CNc1cc(Nc2cc(F)cnc2OC2CC2)nc2c(C(=O)NC3CC3)cnn12 [I-274]
